The values that follow come from US11401243B2, “Quinoline derived small molecule inhibitors of nicotinamide N-methyltransferase (NNMT) and uses thereof” (priority 2017, dated 2022).

The structures appear in SMILES notation. Entries after “also recorded” stand apart in the source; their conditions may differ. Where two headings read alike, the source gives them in different places.

Series [1] has as its system NNMT activity in 3T3-L1 pre-adipocytes and differentiated adipocytes. Briefly: Quantitative measurement of NNMT reaction product 1-MNA in cultured cells (LC/MS/MS). Type of series: cell-based. The note with it: 10 μM, 24 h. The procedure:
Differentiation of 3T3-L1 pre-adipocytes. […] Briefly, standard culture media was supplemented with scheduled addition of adipogenic agents [3-isobutyl-1methyl xanthine (IBMX), Sigma Aldrich; MO, USA), dexamethasone (Sigma Aldrich; MO, USA), insulin (Gibco Life Technologies Inc.; Grand Island, N.Y., USA)] over 10 days to promote differentiation of 3T3-L1 fibroblasts into adipocytes; a combination of 1 mM IBMX, 1 μM dexamethasone, and 10 μg/ml of insulin in media were added to fully confluent 3T3-L1 fibroblasts for three days (days 0-3) to initiate differentiation. At day 3, the media was replaced with culture media supplemented with insulin (10 μg/ml). After day 6, cells were maintained in culture media until described experiments were begun (days 8-10).
Cellular 1-MNA concentrations were determined using an ultra-sensitive high-resolution AB Sciex 6500 Q-trap mass spectrometer coupled to an Agilent 1260 ultra-high pressure liquid chromatography (LC/MS/MS) system. Using multiple reaction monitoring (MRM) positive ion mode, the 1-MNA NNMT reaction product was quantified from peak area ratios using AB Sciex Analyst and MultiQuant 2.1 software and the parent precursor and Q3 masses set to m/z 137.1 and 94.1, respectively. Fragment ions at m/z of 92.1 and 77.9 were additionally used for the detection and confirmation of 1-MNA, respectively. […]. To determine the effect of NNMT inhibitor on NNMT activity in the pre-adipocytes and differentiated adipocytes (8×10^4 cells/well seeded prior to beginning differentiation), cells were treated with 30 μM inhibitor for 24 h. Similarly, to compare the relative effects of multiple NNMT inhibitors on NNMT activity in cultured adipocytes, differentiated adipocytes in 6-well plates were treated with 10 μM test compound for 24 h. Following treatment, media was replaced with 80% (v/v) methanol (cooled to −80° C.) containing 500 nmol 6-chloronicotinamide (6-CN) as an internal standard (IS) to extract cellular metabolites. Adherent cells were scrapped, then centrifuged at 4° C. and 13000 g for 15 min, and the resulting supernatants processed using established protocols. […]. Data were subsequently normalized to the IS peak area and transformed as % control values for cross-sample comparisons. […] Choice of inhibitor concentrations and time period was chosen based on the results from the MTT studies.

Series [2] has as its target T1, human NNMT (mt-hNNMT) (Homo sapiens, UniProt P40261, E101A/E103A/K100A).
T1 sequence (P40261 1-261 K100A/E101A/E103A limits assumed): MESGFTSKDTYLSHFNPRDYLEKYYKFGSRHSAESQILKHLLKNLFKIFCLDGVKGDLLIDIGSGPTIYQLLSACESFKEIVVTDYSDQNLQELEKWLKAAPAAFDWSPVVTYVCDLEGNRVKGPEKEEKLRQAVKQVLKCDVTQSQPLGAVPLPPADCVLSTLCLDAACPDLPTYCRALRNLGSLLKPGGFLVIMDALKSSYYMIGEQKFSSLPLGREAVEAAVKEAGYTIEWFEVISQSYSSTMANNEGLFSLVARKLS
The settings on record: values from applicant's published SAR study; read-out: IC50 (NNMT inhibition); cited from earlier work.

The nature of series [3]: Parallel artificial membrane permeability assay (PAMPA). It is filed as in vitro ADME. The note with it: for Papp at 4 h, 400 μM: 400 μM in PBS, room temperature, read-out: Flux; for Permeability Classification (passive transport): BCS classification. The method, then: Samples were tested in triplicates in three separate experiments.
(The PAMPA barrier holds no transporters, so it reflects passive diffusion.)

Series [4] has as its target T1, human NNMT (mt-hNNMT). Kind of series: NNMT activity assay (HPLC-UV detection of MNA), NNMT IC50 curves. The settings on record: NNMT Inhibition IC50, mean ± SD of duplicate or triplicate measurements; NI = no observable inhibition.
Series [5] has as its target recombinant human DNMT1 enzyme (Homo sapiens, UniProt P26358). Kind of series: DNMT1 activity assay (radiometric). It is filed as biochemical.
Series [6] concerns the target recombinant human PRMT3 enzyme (Homo sapiens, UniProt O60678). Briefly: PRMT3 activity assay (radiometric). Type of series: biochemical. The text has this:
Test compounds were screened in biochemical assays for activity against three structurally similar methyltransferases, including catechol-O-methyltransferase (COMT), DNA (cytosine-5)-methyltransferase 1 (DNMT1), and protein arginine methyltransferase 3 (PRMT3). Additional biochemical assays were used to test the ability of compounds to inhibit nicotinamide phosphoribosyl transferase (NAMPT) and NAD+-dependent protein deacetylase sirtuin 1 (SIRT1), two enzymes in the NAD+ biosynthesis/salvage pathway. All assays were performed by Reaction Biology Corporation (RBC; Malvern, Pa., USA) and complete assay details are noted below. For each test compound, IC50 values were calculated from dose-response curves established with 10 concentrations of a half-log dilution series. For each assay, established enzyme specific inhibitors were included as positive controls for enzyme function and assay reproducibility. IC50 values were determined by non-linear least-squares fitting of a 4-parameter dose-response curve to collected data points (Graphpad Prism 7.0; La Jolla, Calif., USA).
PRMT3 activity assay. […] The analogues, 1,8-diMQ and 5-amino-1MQ were tested at concentrations from 200 μM-10 nM and 600 μM-10 nM, respectively. Reactions were performed with 5 μM histone H3 (histone L-arginine) substrate, 1 μM radiolabeled S-adenosyl-L-[methyl-3H]methionine (SAM) co-substrate, and recombinant human PRMT3 enzyme. Activity was monitored via quantification of radiolabeled reaction product histone [methyl-3H]-L-arginine.

Series [7] deals with Caco-2 cells. Briefly: Bi-directional permeability assay with Caco-2 cells. (Passage across Caco-2 layers is used to estimate intestinal permeability.)
Test in series [8]: as above
The note with it: human, Caco-2, pH 7.4.

Series [9] deals with T2, recombinant human COMT enzyme (Homo sapiens, UniProt P21964).
T2 construct: Reaction Biology Corporation (ran the assay)
T2 sequence (P21964 1-271): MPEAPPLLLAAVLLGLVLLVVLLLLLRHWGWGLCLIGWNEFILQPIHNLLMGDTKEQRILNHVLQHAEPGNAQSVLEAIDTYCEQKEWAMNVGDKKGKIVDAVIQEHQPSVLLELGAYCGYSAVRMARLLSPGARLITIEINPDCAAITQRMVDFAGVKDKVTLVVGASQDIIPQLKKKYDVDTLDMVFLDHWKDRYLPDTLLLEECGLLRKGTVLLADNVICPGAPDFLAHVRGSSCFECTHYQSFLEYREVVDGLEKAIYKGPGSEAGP
Briefly: COMT activity assay (radiometric). The settings on record: maximal tested concentration 200 μM. Type of series: biochemical.

In series [10] the target is recombinant human NAMPT enzyme (Homo sapiens, UniProt P43490). Briefly: NAMPT activity assay (fluorometric). Type of series: biochemical. The note with it: concentrations between 30 and 600 μM (data not shown).
Setting [11] is: 10 nM to 200 μM (1,8-diMQ) or 600 μM (5-amino-1MQ).

Sequence of recombinant human PRMT3 enzyme (O60678 whole entry): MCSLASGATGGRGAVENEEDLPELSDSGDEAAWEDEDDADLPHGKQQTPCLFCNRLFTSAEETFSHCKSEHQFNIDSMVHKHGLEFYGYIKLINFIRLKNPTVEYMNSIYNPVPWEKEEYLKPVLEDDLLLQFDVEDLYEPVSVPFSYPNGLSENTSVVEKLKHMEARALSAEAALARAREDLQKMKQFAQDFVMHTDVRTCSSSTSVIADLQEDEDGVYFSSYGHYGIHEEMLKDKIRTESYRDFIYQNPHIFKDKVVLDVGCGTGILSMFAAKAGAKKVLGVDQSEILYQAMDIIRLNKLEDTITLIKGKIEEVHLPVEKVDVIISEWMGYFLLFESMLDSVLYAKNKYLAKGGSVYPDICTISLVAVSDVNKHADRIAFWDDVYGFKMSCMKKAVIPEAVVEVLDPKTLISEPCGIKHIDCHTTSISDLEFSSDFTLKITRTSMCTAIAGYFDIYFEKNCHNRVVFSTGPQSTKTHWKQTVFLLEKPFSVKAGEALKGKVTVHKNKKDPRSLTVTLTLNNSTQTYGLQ
Sequence of recombinant human DNMT1 enzyme (P26358 whole entry): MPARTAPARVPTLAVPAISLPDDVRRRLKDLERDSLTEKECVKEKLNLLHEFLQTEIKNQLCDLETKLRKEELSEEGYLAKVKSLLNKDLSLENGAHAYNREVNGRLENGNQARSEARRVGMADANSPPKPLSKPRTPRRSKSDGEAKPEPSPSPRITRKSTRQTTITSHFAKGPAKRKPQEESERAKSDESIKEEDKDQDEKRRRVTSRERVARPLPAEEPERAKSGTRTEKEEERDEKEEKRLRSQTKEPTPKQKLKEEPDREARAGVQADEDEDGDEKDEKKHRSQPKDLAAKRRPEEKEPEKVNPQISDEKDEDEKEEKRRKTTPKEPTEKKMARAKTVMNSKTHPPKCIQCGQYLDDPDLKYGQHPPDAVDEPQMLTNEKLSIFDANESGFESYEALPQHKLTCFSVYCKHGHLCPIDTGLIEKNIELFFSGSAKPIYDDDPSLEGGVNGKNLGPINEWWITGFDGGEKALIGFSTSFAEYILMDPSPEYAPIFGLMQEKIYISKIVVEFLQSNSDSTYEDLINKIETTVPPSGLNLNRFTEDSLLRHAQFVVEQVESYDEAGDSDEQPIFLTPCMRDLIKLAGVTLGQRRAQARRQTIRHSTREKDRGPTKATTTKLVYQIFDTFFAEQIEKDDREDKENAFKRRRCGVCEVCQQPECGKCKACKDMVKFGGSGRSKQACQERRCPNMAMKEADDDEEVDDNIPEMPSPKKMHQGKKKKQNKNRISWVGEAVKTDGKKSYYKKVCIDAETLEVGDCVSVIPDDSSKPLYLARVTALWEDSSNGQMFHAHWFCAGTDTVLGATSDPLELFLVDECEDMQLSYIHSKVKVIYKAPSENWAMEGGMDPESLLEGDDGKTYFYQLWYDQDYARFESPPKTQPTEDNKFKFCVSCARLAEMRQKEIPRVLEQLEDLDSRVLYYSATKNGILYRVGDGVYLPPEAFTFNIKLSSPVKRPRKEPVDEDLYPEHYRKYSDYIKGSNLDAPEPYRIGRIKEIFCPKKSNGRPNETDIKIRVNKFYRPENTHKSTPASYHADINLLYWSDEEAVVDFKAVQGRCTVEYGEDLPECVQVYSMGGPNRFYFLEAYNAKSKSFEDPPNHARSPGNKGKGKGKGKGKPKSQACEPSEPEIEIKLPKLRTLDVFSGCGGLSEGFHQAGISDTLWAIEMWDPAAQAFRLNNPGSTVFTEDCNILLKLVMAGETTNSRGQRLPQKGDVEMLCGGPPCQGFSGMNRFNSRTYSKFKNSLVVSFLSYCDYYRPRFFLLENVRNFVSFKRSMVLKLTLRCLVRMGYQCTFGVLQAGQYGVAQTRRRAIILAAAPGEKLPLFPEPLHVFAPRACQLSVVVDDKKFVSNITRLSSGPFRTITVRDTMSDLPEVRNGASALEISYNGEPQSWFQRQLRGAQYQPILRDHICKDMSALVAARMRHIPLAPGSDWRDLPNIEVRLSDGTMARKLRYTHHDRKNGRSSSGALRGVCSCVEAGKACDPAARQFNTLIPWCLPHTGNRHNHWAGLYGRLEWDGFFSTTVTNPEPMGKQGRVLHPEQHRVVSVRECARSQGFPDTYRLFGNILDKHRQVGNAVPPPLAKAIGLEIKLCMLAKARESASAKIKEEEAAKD
Sequence of recombinant human NAMPT enzyme (P43490 whole entry): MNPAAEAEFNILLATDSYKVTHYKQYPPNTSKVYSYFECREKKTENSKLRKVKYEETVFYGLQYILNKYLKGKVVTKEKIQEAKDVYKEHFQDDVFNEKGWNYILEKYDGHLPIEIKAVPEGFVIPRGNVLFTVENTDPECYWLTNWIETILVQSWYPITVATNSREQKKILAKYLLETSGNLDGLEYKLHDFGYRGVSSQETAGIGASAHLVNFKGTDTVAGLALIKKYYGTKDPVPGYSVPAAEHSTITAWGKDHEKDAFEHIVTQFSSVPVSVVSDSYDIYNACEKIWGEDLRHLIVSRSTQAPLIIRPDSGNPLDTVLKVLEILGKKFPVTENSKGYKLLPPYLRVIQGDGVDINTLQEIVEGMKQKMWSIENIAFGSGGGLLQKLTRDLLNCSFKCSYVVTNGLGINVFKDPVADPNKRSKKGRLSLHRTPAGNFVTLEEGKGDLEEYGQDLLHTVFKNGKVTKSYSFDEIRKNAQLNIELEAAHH

Consider `Cc1cc(C)[n+](C)c2c(C)cccc12` [1,2,4,8-tetraMQ], for which the “1-MNA levels in differentiated adipocytes relative to control” value in series [1] is recorded as “did not significantly decrease”. In addition, the half-inhibitory concentration (IC50) in [2] is 109 µM. Besides, in series [3], the Papp at 4 h, 400 μM came out at 0.698 ×10⁻⁶ cm/s and the “Permeability Classification (passive transport)” value is “low, but non-zero, permeability; also recorded: Low permeability”.

Take `Cc1cccc2ccc[n+](C)c12` [1q]: the IC50 in series [4] was 1.8 ± 0.5 µM; in series [5] (read-out: IC50, DNA (cytosine-5)-methyltransferase 1, NI: no inhibition), more than 200 µM. Also, the “inhibition of DNMT1 (in words)” value in series [5] (setting [11]) is on record as “did not inhibit”. Moreover, the “inhibition of PRMT3 (in words)” value in series [6] (setting [11]) is on record as “did not inhibit”. Besides, the Papp at 4 h, 400 μM in series [3] is 0.864 ×10⁻⁶ cm/s. The “Permeability Classification (passive transport)” value in series [3] (listed as 1,8-diMQ) is “low, but non-zero, permeability; also recorded: Low permeability”. The “Mean A→B Papp” value in series [7] (Caco-2, 10 μM, 2 h, pH 7.4, BLQ = no peak detected in receiver side) was “BLQ”. For the same compound, the “Classification (active transport / efflux)” value in series [7] (Caco-2, listed as 1,8-diMQ) was “very low bi-directional transport; also recorded: Low permeability”. In series [8], this compound returned an apparent permeability from basolateral to apical (Papp B→A) at 2 h, 10 μM of 1.78 ×10⁻⁶ cm/s. In addition, in series [9], the inhibition at 200 µM came to 20%.

As for `C[n+]1cccc2c(N)c(F)ccc21` [5-amino-6-fluoro-1MQ], in series [10], the “inhibition of NAMPT (in words)” value is reported as “no inhibition”.

Consider `Nc1ncnc2c1ncn2[C@@H]1O[C@H](CSCC[C@H](N)C(=O)O)[C@@H](O)[C@H]1O` [SAH, S-adenosylhomocysteine, reference compound], for which the concentration for half-maximal inhibition (IC50) in series [6] (NC: not calculable (no significant inhibition), read-out: IC50, Protein arginine methyltransferase 3) is 6.6 ± 1.2 µM.

One may read the IC50 as the midpoint of a concentration-inhibition curve. Broadly, the Papp B→A is the apparent permeability from the basolateral to the apical side of a cell layer. Broadly, the inhibition is the percentage by which the read-out fell short of the control.
